Here are results for 75 molecules from PubChem BioAssay AID1996.

In brackets after ≈: the same amount, converted by molar mass. Some results are limits rather than exact numbers.

For the data set the following is noted: buffer; pH 7.4; 200.0 µM.
What is called solubility (kinetic) is solubility judged after dilution from a stock solution rather than from solid. In turn, `CCOC(=O)N1CCN(c2ccncc2S(=O)(=O)N2CCCCC2)CC1` came in with a solubility (kinetic) greater than 57.4 µg/mL.
For the molecule `Cc1ccc(OCC(=O)NC(C)c2ccccc2)c([N+](=O)[O-])n1` (stereo not given), the solubility (kinetic) was 47.1 µg/mL (≈ 149 µM).
`CC(C(=O)c1c[nH]c2ccccc12)N1CCN(C(=O)c2ccco2)CC1` (stereo not given) returned a solubility (kinetic) greater than 52.7 µg/mL.
To `O=C(O)C1CCN(S(=O)(=O)Cc2ccccc2)CC1` belongs 33.3 µg/mL (≈ 118 µM); to `CCOC(=O)C1=C(C)OC(N)=C(C#N)C1c1ccc(C)s1` (stereo not given), 13.2 µg/mL (≈ 43.4 µM); to `Fc1ccc2c(c1)C1OCCCC1C(c1ccccc1)N2` (stereo not given), less than 0.6 µg/mL.
`Cc1nc(NC(=O)COC(=O)CCc2ccccc2)c(Cl)cc1Cl` registered a solubility (kinetic) of 21.8 µg/mL (≈ 59.4 µM).
`O=CNc1ccc(OC(=O)c2cncc(Br)c2)cc1` gave a kinetic solubility of 15.4 µg/mL (≈ 48 µM). The solubility kinetic values of the last two molecules are within 1.5-fold of each other.
`COc1ccccc1CC(=O)N1CCN(C(=O)c2ccco2)CC1` displayed a solubility (kinetic) of 48.3 µg/mL (≈ 147 µM).
In the case of `Clc1nc(CN2CCCCC2)nc2sc3c(c12)CCC3`, the kinetic solubility was greater than 46.2 µg/mL.
To `CCNC(=S)N1CCC(n2cnc3ccccc32)CC1` belongs greater than 43.3 µg/mL.
In turn, `Cc1cc(OC(=O)c2ccccc2C)c([N+](=O)[O-])c(=O)[nH]1` yielded a solubility (kinetic) greater than 43.2 µg/mL.
`CC1CCN(C(=O)c2ccccc2NC(=O)c2cccs2)CC1` displayed a solubility (kinetic) greater than 49.3 µg/mL.
In turn, `O=C(O)/C=C/C(=O)Nc1ccc(-n2nccc2C(F)(F)F)cc1` yielded a solubility (kinetic) greater than 48.8 µg/mL.
With `Cc1ccc(C)c(S(=O)(=O)NCC(=O)N2CCCC2)c1`, the kinetic solubility is 41.4 µg/mL (≈ 140 µM).
For `Cc1ccsc1CNC(=O)c1c(-c2ccccc2)noc1C`, the kinetic solubility came to 22.2 µg/mL (≈ 71.1 µM). Compared with the last molecule, the solubility kinetic is about 1.9-fold lower.
In the case of `Cc1ccc(C)c(C(=O)COC(=O)C(C)N2C(=O)C3C4CCC(C4)C3C2=O)c1` (stereo not given), the kinetic solubility came out at 42 µg/mL (≈ 110 µM).
Consider `O=C(NCc1ccco1)Nc1ccc(OC(F)(F)F)cc1`, for which the solubility (kinetic) came to 11.1 µg/mL (≈ 37 µM).
Take `Cc1cccc2c(=O)oc(-c3ccccc3Cl)nc12`: the kinetic solubility is less than 0.6 µg/mL.
`CCn1c(SCC(=O)NC2CC2)nnc1-c1csc(C)c1` yielded a solubility (kinetic) greater than 48.4 µg/mL.
Consider `COc1ccc(NC(=O)c2cc3cc(C)ccc3n2C)c(OC)c1`, for which the kinetic solubility was found to be 2.7 µg/mL (≈ 8.32 µM).
To `COc1ccc(-c2csc(Nc3ncccn3)n2)cc1C` belongs less than 0.1 µg/mL; to `O/N=C(\c1ccccc1)C(O)c1ccccc1` (stereo not given), greater than 34.1 µg/mL; to `CC(NC(=O)C(c1ccccc1)c1ccccc1)C(=O)N1CCCCC1` (stereo not given), 49.3 µg/mL (≈ 141 µM).
With `CCOc1ccc(-c2cnc(N)n2C)cc1`, the solubility (kinetic) is 31.8 µg/mL (≈ 146 µM).
In the case of `CCN(C(=O)COC(=O)c1ccc([N+](=O)[O-])o1)c1cccc2ccccc12` it was 33.7 µg/mL (≈ 91.5 µM); in that of `CCCc1ccc2oc(C(=O)N3CCC(COC)C3)c(C)c2c1` (stereo not given), 24.7 µg/mL (≈ 78.3 µM); in that of `COc1ccc(/C=C2\CCc3ccccc3C2=O)cc1CN1CCOCC1`, 23.9 µg/mL (≈ 65.8 µM).
On to `Cc1cc(NC(=O)Cn2c(=O)oc3ccccc32)no1`, for which the kinetic solubility turned out to be 8.6 µg/mL (≈ 31.5 µM).
`Nc1cc(N)nc(SCc2cccc(F)c2)n1`: the solubility (kinetic) is 24.9 µg/mL (≈ 99.5 µM).
With `O=C(Cn1ccc([N+](=O)[O-])n1)NCc1ccccc1`, the kinetic solubility is greater than 39 µg/mL.
To `CCNCc1cc([N+](=O)[O-])ccc1OCC.Cl` belongs greater than 39.1 µg/mL; to `Cc1cccc(C)c1N1C(=O)CCC(C)(C)C1=O`, greater than 36.8 µg/mL; to `Cc1ccc(SC(C)C(=O)O/N=C(\N)c2ccncc2)cc1` (stereo not given), greater than 47.3 µg/mL.
Consider `CN1CCN(S(=O)(=O)c2cccc3nsnc23)CC1`, for which the kinetic solubility was greater than 44.8 µg/mL.
Molecule `O=C(Nc1ccc2oc(=O)ccc2c1)c1ccccc1[N+](=O)[O-]` gave a solubility (kinetic) of 5.7 µg/mL (≈ 18.4 µM).
Consider `Cc1csc(NC(=O)c2cc[n+]([O-])cc2)n1`, for which the kinetic solubility is greater than 35.3 µg/mL.
To `Cc1ccc(C(=O)NCCNC(=O)c2ccc(C)o2)o1` belongs 36.1 µg/mL (≈ 131 µM).
`O=C(COC(=O)Cn1ccc(=O)[nH]c1=O)Nc1ccc(F)cc1` displayed a kinetic solubility greater than 48.2 µg/mL.
To `OCCCNc1ncnc2scc(-c3ccc(Cl)cc3)c12` belongs greater than 48 µg/mL.
For `CCS(=O)(=O)N1CCN=C1SC(C)c1ccccc1` (stereo not given), the solubility (kinetic) turned out to be 41.4 µg/mL (≈ 139 µM).
With `O=C(NCC1CCCCC1)c1cccc(-c2ccc(O)cc2)c1`, the solubility (kinetic) is less than 0.7 µg/mL.
Molecule `CCN(CC)CCNc1ccc(CO)c2sc3ccccc3c(=O)c12` displayed a solubility (kinetic) greater than 53.5 µg/mL.
In the case of `COc1ccc2c(C)cc(SCC(=O)NC3CCCC3)nc2c1`, the kinetic solubility worked out at 6.6 µg/mL (≈ 20 µM).
In the case of `COc1cccc(CNC(=O)CNC(=O)c2cccs2)c1`, the solubility (kinetic) is greater than 45.7 µg/mL.
Regarding `C(#CCN1CCCCC1)COCc1ccccc1.Cl`, the kinetic solubility came out at 39 µg/mL.
Regarding `CCN(CC(=O)NC(C)C)C(=O)c1cc(S(=O)(=O)N2CCCCC2)ccc1N1CCCCC1`, the solubility (kinetic) worked out at 10.7 µg/mL (≈ 22.4 µM).
To `COc1ccc(CCNC(=O)COC(=O)CCC(=O)c2ccc(F)cc2)cc1` belongs 15.9 µg/mL (≈ 41 µM); to `Cc1ccc(CNC(=O)Cc2noc3ccccc23)cc1`, 2.3 µg/mL (≈ 8.2 µM); to `COc1ccc(Nc2nc3ccccc3n2C)cc1`, 36.5 µg/mL (≈ 144 µM).
`O=C(/C=C/c1c(F)cccc1Cl)N1CCc2ccccc2C1` came in with a kinetic solubility of 5.9 µg/mL (≈ 18.7 µM). Against the preceding molecule, the solubility kinetic is about 6.2-fold lower.
In the case of `COc1ccccc1C(=O)NCCSCc1ccccc1Cl`, the kinetic solubility was 15.1 µg/mL (≈ 45 µM).
Regarding `O=C(Nc1ccncc1)c1cc(S(=O)(=O)N2CCCC2)ccc1Cl`, the solubility (kinetic) is greater than 54.9 µg/mL.
On to `N#Cc1ccc(OCC(=O)NCCN2CCOCC2)cc1`, for which the solubility (kinetic) is greater than 43.4 µg/mL.
With `CC(=O)c1ccc(OCC(=O)NCc2ccc(F)cc2)cc1`, the kinetic solubility is greater than 45.2 µg/mL.
Turning to `c1ccc(CCNc2cnccn2)cc1`, the kinetic solubility is greater than 29.9 µg/mL.
Consider `Cn1c(C(=O)NCCc2ccccc2)cc(=O)n(C)c1=O`, for which the solubility (kinetic) was greater than 43.1 µg/mL.
As for `CC(=O)Nc1ccc(NC(=O)C(C)OC(=O)c2ccc(S(=O)(=O)N3CCCCC3)cc2)cc1` (stereo not given), the solubility (kinetic) worked out at 6.4 µg/mL (≈ 13.5 µM).
As for `O=C(Nc1ccon1)Nc1ccccc1C(F)(F)F`, the kinetic solubility is greater than 40.7 µg/mL.
In turn, `Cc1ccc(-c2csc(NC(=O)c3cnccn3)n2)cc1C` gave a kinetic solubility of less than 0.2 µg/mL.
As to `CCc1cccc(OCC(=O)Nc2c[nH]c(=O)[nH]c2=O)c1`, the kinetic solubility was found to be 0.9 µg/mL (≈ 3.11 µM).
In the case of `Cc1onc(-c2ccccc2)c1C(=O)N(Cc1ccccc1)C(C)C` it was greater than 50.2 µg/mL; in that of `CCOc1ccccc1Nc1nnc(SCC(=O)NC2CCS(=O)(=O)C2)s1` (stereo not given), greater than 64.3 µg/mL; in that of `Cc1cc(C(=O)N2CCN(c3ccc([N+](=O)[O-])cc3)CC2)n[nH]1`, greater than 47.3 µg/mL.
Regarding `CCC(CC)C(=O)c1c[nH]c(C(=O)NCc2ccccc2OC)c1`, the solubility (kinetic) came out at 0.8 µg/mL (≈ 2.44 µM).
In the case of `c1ccc(NCc2ccccn2)cc1` it was 24.6 µg/mL (≈ 134 µM); in that of `CC(=O)C(Sc1ncnc2sc3c(c12)CCCC3)C(C)=O`, 38.6 µg/mL (≈ 120 µM); in that of `O=C(COC(=O)c1cccnc1Cl)c1ccc(OC(F)F)cc1`, 51.2 µg/mL (≈ 150 µM).
For `O=C(CN1C(=O)CCC1=O)Nc1cccc2c1C(=O)NC2=O`, the kinetic solubility was greater than 45.2 µg/mL.
`COc1ccccc1C(=O)Nc1ccncc1`: the kinetic solubility was 33.4 µg/mL (≈ 146 µM).
For `CCN(C(=O)COc1ncnc2sccc12)c1ccccc1`, the kinetic solubility was 42.5 µg/mL (≈ 136 µM).
In turn, `COc1cc(C)c(CN2CC=C(c3ccc(F)cc3)CC2)cc1C` yielded a kinetic solubility of 8.5 µg/mL (≈ 26.1 µM).
Take `NC(=O)COC(=O)c1c2c(nc3ccccc13)CCCC2`: the kinetic solubility was 39.4 µg/mL (≈ 139 µM). This solubility kinetic lies about 4.6-fold higher than the previous one.
To `Cc1nn(C)c(NC(=O)c2ccccc2Cl)c1Br` belongs greater than 49.3 µg/mL.
To `COc1ccc2nc(C)cc(Nc3ccc(C(=O)O)cc3)c2c1` belongs 40.5 µg/mL (≈ 131 µM).
